Source: patent US6919375B1, “Sulfonated amino acid derivatives and metalloproteinase inhibitors containing the same” (Shionogi & Co., Ltd., priority 1996, dated 2005)
pIC50: −log10 of the molar value.

Biological target: T1, Type IV collagenase (MMP-9) (Homo sapiens, UniProt P14780)
T1 construct: made in house; host or cells: endogenous secretion by TPA-stimulated human fibrosarcoma HT 1080 cells; purified from conditioned medium
Assay: Type IV collagenase (MMP-9) inhibition assay, fluorescent substrate kit
Assay type: biochemical
Conditions: activated MMP-9 from HT 1080 cells; type IV collagenase activity kit, fluorescent intensity
Experimental: (1) Isolation and Purification of MMP-9 (92 kDa, Gelatinase B)
Type IV collagenase (MMP-9) was purified according to the methods descrived in the following literature.
Subsequently, activated MMP-9 was obtained by treating the pro-MMP-9 with trypsin.
(2) Assay Methods of Type IV Collagenase Inhibitors
Collagenase assay was performed using the activated MMP-9 described above and the substrate supplied in the type IV collagenase activity kit (YAGAI, inc.), according to the manufacturer's protocol. The following 4 assays are performed per compound (inhibitor). • (A) substrate ([…]), enzyme (MMP-9), inhibitor • (B) substrate ([…]), inhibitor • (C) substrate ([…]), enzyme (MMP-9) • (D) substrate ([…])
According to the manufacturer's protocol, fluorescent intensity was measured and percent inhibition was determined by the following equation. Inhibition (%)={1−(A−B)/(C−D;)}×100

T1 sequence (P14780 107-707 limits assumed): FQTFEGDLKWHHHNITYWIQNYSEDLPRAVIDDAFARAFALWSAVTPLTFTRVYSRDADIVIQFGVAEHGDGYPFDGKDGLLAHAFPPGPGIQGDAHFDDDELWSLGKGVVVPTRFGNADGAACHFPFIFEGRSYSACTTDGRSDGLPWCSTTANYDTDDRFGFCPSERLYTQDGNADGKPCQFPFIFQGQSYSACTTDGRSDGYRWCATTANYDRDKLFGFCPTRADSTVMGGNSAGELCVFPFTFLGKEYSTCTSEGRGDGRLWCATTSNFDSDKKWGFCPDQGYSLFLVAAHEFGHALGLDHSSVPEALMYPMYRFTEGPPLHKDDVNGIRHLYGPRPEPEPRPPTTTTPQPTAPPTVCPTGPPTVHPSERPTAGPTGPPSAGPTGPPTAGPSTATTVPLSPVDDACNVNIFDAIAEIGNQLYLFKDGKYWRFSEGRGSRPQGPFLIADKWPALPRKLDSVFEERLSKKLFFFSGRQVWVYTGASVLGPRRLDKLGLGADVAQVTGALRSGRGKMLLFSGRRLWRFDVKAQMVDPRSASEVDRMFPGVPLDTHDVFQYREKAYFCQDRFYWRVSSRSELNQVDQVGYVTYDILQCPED

pIC50	Structure (SMILES)
7.67	O=C(NO)C(Cc1nc2ccccc2[nH]1)NS(=O)(=O)c1ccc(-c2ccccc2)cc1 (racemic) [Example 1b.1-35]
6.68	O=C(O)[C@@H](Cc1ccccc1)NS(=O)(=O)c1ccc(-c2nnn(-c3ccccc3)n2)cc1 [Example 1a-5-3]
8.25	O=C(NO)[C@@H](Cc1ccccc1)NS(=O)(=O)c1ccc(-c2nnn(-c3ccccc3)n2)cc1 [Example 1b-211]
